Laboratory results: ChEMBL document CHEMBL1156829 (Proc Natl Acad Sci U S A, 2008)

How the values were obtained:
[1] = NOVARTIS: Cytotoxicity against human hepatocellular carcinoma cell line (Huh7); assay type: toxicity, cell-based, Huh-7; conditions: Huh7 cells (hepatocellular carcinoma cell line)
[2] = test system: Plasmodium falciparum; experiment: NOVARTIS: Inhibition of Plasmodium falciparum 3D7 (drug-susceptible) proliferation in erythrocyte-based infection assay; assay type: functional, organism-based; conditions: Plasmodium falciparum, 3D7
[3] = test system: Plasmodium falciparum; experiment: NOVARTIS: Inhibition of Plasmodium falciparum W2 (drug-resistant) proliferation in erythrocyte-based infection assay; assay type: functional, organism-based; conditions: Plasmodium falciparum, W2; read-out: EC50

Structure (SMILES)	CC50 [1]	EC50 [2]	EC50 [3]
CC=C[C@H]1O[C@@](O)([C@@H](C)C(O)C(C)[C@H]2OC(=O)C(OC)=CC(C)=C[C@@H](C)[C@@H](O)[C@@H](C)[C@@H](O)C(C)CC(C)=CC=C[C@@H]2OC)C[C@@H](O[C@H]2C[C@@H](O)[C@H](OC(N)=O)[C@@H](C)O2)[C@@H]1C (stereo partly specified)	> 10000 nM	> 1670 nM	240 nM
CN1CCN(c2ccc(Nc3ccnc4ccccc34)cc2)CC1	> 10000 nM	220 nM	237 nM
FC(F)(F)c1cccc(-c2cc(NCCCn3ccnc3)nc(-c3ccncc3)n2)c1	> 7720 nM	204 nM	186 nM
Nc1ccc(-c2nc3cc(-c4ccc5[nH]c(-c6ccc(N)cc6)nc5c4)ccc3[nH]2)cc1	> 10000 nM	579 nM	234 nM
CC(=O)CSc1nnc(-c2ccncc2)n1C	> 12700 nM	> 1250 nM	310 nM
O=C(O)Cn1cnc2nc3n(c2c1=O)CCC3	> 100000 nM	> 10400 nM	2420 nM
Oc1cccc(Nc2nc(NCc3ccco3)c3ccccc3n2)c1	11500 nM	275 nM	279 nM
COC(=O)c1ccnn(-c2ccccc2)c1=O	12900 nM	> 1690 nM	319 nM
N=c1n(CCN2CCCC2)c2ccccc2n1CC(O)c1ccc(Cl)c(Cl)c1 (stereo unspecified)	10900 nM	83 nM	257 nM
O=C(NC(c1ccccc1)c1ccccc1)N(Cc1ccccc1)CC(O)CN(CCN1CCOCC1)S(=O)(=O)Cc1ccccc1 (stereo unspecified)	> 6820 nM	115 nM	162 nM
CCOC(=O)NN=CC=NNC(=O)OCC	> 10000 nM	199 nM	235 nM
CCC(c1nc2ccccc2c(=O)n1-c1ccc(Cl)cc1C)N(CCc1ccccc1)C(=O)c1cccc(OC)c1 (stereo unspecified)	> 10000 nM	519 nM	232 nM
COc1ccc(-c2nc(NC(=O)CS(=O)(=O)c3ccccc3)sc2C)cc1	> 100000 nM	505 nM	2300 nM
CCC(SC1=Nc2ccccc2C2=NC(C(C)C)C(=O)N12)C(=O)Nc1cccc(C)c1 (stereo unspecified)	> 100000 nM	7020 nM	2400 nM
O=C(c1ccccc1F)N1CCN(Cc2ccccc2C(F)(F)F)CC1	> 100000 nM	511 nM	2470 nM
Cc1cc(O)ccc1-c1cnc2ccccc2n1	> 10000 nM	> 541 nM	241 nM
O=C1CC(c2nc3ccccc3n2CCCOc2ccccc2)CN1c1ccc(F)cc1 (stereo unspecified)	> 10000 nM	> 882 nM	239 nM
N#Cc1ccccc1Cn1nc(-c2cccnc2)oc1=O	> 100000 nM	> 12500 nM	2380 nM
COc1ccc(-c2cc(C3CCN(c4nc(N)c5cc(OC)c(OC)cc5n4)CC3)n[nH]2)cc1OC	16400 nM	202 nM	379 nM
CCN(CC)C(=O)N1CCN(c2ccc(Nc3ccnc4cc5ccccc5cc34)cc2)CC1	> 100000 nM	961 nM	2470 nM
COC(=O)c1cnn(-c2ccccc2)c1C=NOC(=O)c1ccccc1	> 100000 nM	> 5290 nM	2380 nM
C=CCNC(=O)c1cc2c(=O)n3ccccc3nc2n(CCc2ccccc2)c1=N	> 100000 nM	1530 nM	2320 nM
CC(C)CN(CC(=O)Nc1cc(C(C)(C)C)nn1-c1ccccc1)C(=O)COc1ccccc1	17600 nM	773 nM	432 nM

Structure (SMILES)	CC50 [1]	EC50 [2]	EC50 [3]
CN1CCN(Nc2ccnc3cc4ccccc4cc23)CC1	> 10000 nM	104 nM	246 nM
CCN(c1ccccc1)S(=O)(=O)c1ccc(F)c(C(=O)Nc2c(C)cccc2C)c1	> 100000 nM	> 12500 nM	2450 nM
CSc1nnc(CCNC(=O)c2c(-c3ccccc3)noc2C)n1-c1ccc(F)cc1	> 100000 nM	> 12500 nM	2410 nM
Cc1nc(NN=Cc2ccccc2O)cc(N2CCCCC2)n1	> 10000 nM	1080 nM	237 nM
COC(=O)C1=CN(Cc2ccc(Cl)cc2)C=C(C(=O)OC)C1c1ccc(Cl)c(Cl)c1	> 100000 nM	> 8190 nM	2360 nM
COc1ccc(Nc2nc(Nc3ccc(OC)cc3)c3ccccc3n2)cc1	2100 nM	57.3 nM	51.9 nM
COc1ccc(-n2nc(C(=O)NCC(=O)NCCCN3CC(C)CC(C)C3)c3ccccc3c2=O)cc1Cl (stereo unspecified)	76400 nM	> 7360 nM	1870 nM
Brc1ccc(-c2n(Cc3ccccc3)c3ccccc3[n+]2Cc2ccccc2)o1	11000 nM	167 nM	260 nM
Cc1ccc(-c2nc(CS(=O)(=O)CC(=O)NC3CCC(C)CC3)c(C)o2)cc1 (stereo unspecified)	> 10000 nM	> 1250 nM	> 244 nM
CCCCN1C=Nc2cc(C(=O)NCc3ccc(OC)cc3)ccc2C1	> 10000 nM	463 nM	243 nM
Clc1ccccc1-c1nc([P+](c2ccccc2)(c2ccccc2)c2ccccc2)c(N2CCOCC2)o1	10100 nM	350 nM	238 nM
CN(c1ccccc1)S(=O)(=O)c1ccc(C(=O)Nc2ccc(-c3nc4ccccc4[nH]3)cc2)cc1	42800 nM	788 nM	1040 nM
COc1cc(OC)cc(-n2nc(C(=O)NCCCN3CC(C)CC(C)C3)c3ccccc3c2=O)c1 (stereo unspecified)	> 100000 nM	> 12500 nM	2440 nM
COc1ccc(S(=O)(=O)Nc2ccc(N3CCC(Cc4ccccc4)CC3)c(C(=O)NC(C)C)c2)cc1	> 100000 nM	2120 nM	2430 nM
Cc1ccc(N2CCN(CCNCc3ccc(F)cc3)[C@@H](Cc3ccc(O)cc3)C2)cc1	> 10000 nM	443 nM	240 nM
Cc1oc(-c2cccs2)nc1CN1CCC(CO)(CCOc2ccccc2)CC1	> 100000 nM	8470 nM	2350 nM
O=C(Nc1ccc(C2=NCCN2)c(Cl)c1)c1ccc(C(=O)Nc2ccc(C3=NCCN3)c(Cl)c2)cc1	> 10000 nM	554 nM	234 nM
Cc1ccc(-c2c[n+](Cc3cccc(C)c3)c3n2CCC3)cc1	20600 nM	568 nM	493 nM
O=c1ccc2cc(Cl)c(O)c(Cl)c2o1	> 10000 nM	> 1250 nM	> 234 nM
CCCCCCCCCC[n+]1c(C)n(CC)c2cc(Cl)c(Cl)cc21	21000 nM	613 nM	490 nM
CC(Oc1ccc(Cl)cc1Cl)c1nc(-c2ccc(NC(=O)c3cccs3)cc2)no1 (stereo unspecified)	25600 nM	429 nM	631 nM
COC(=O)C1=CNC=C(C(=O)OC)C1c1cc(OC)c(OC)cc1OC	> 10000 nM	> 1350 nM	245 nM
COc1cccc(NCC(O)Cn2c3ccc(Cl)cc3c3cc(Cl)ccc32)c1 (stereo unspecified)	51300 nM	2130 nM	1190 nM

Structure (SMILES)	CC50 [1]	EC50 [2]	EC50 [3]
COc1ccc(-c2c[n+](CC(=O)O[C@H]3C[C@H](C)CC[C@@H]3C(C)C)c3n2CCCCC3)cc1	16500 nM	450 nM	404 nM
CCN1CCC(NC2CCCc3c2[nH]c2ccc([N+](=O)[O-])cc32)CC1 (stereo unspecified)	14500 nM	497 nM	337 nM
O=C(C[n+]1cc(-c2ccc(F)cc2)n2c1CCC2)Nc1ccc(Cl)cc1	> 100000 nM	2880 nM	2300 nM
CC1CCN(c2ncnc3sc4c(c23)CCC(C)C4)CC1 (stereo unspecified)	> 100000 nM	1050 nM	2300 nM
CCOc1ccccc1-n1c(C(C)N(Cc2ccccc2)C(=O)Nc2cccc3ccccc23)nc2ccccc2c1=O (stereo unspecified)	> 10000 nM	855 nM	242 nM
Cc1c(C(=O)Nc2ccccc2)sc2ncn(Cc3ccccc3Cl)c(=O)c12	> 100000 nM	5400 nM	2420 nM
CCCOc1ccc(NC(=O)c2ccco2)cc1	16900 nM	1150 nM	406 nM
CC[C@@]1(O)C[C@H](O[C@@H]2CC(N(C)C)[C@@H](O[C@@H]3C[C@@H](O)[C@@H](O[C@@H]4CCC(=O)[C@@H](C)O4)C(C)O3)[C@@H](C)O2)c2c(cc3c(c2O)C(=O)c2c(O)ccc(O)c2C3=O)[C@H]1C(=O)OC (stereo partly specified)	3370 nM	87.7 nM	79.2 nM
O=C(Nc1ccccc1O)c1ccc(C(=O)N(C2CCCCC2)C2CCCCC2)cc1	> 100000 nM	1470 nM	> 2450 nM
COc1ccc(/C=C(/C#N)C(=O)Nc2cccc3ccccc23)cc1	> 10000 nM	> 1160 nM	> 241 nM
COc1ccccc1N1C(=N)SC(=Cc2ccc(N(C)C)cc2)C1=O	2220 nM	101 nM	52.5 nM
CC(C)CC(=O)Nc1nnc(-c2ccc(Br)cc2)s1	> 100000 nM	> 9040 nM	2330 nM
Cn1nc(-c2ccccc2)c2c(C(=O)C(F)(F)F)cc(C(=O)C(F)(F)F)c-2c1-c1ccccc1	> 100000 nM	8230 nM	2330 nM
CCCCOc1ccc(NC2=NC3(CCCC3)NC(N)=N2)cc1	> 100000 nM	1090 nM	2330 nM
COC(=O)c1ccc(Nc2nc(NCc3ccco3)c3ccccc3n2)cc1	18800 nM	279 nM	433 nM
CCN1/C(=C/C2=CC(=C/c3sc4ccccc4[n+]3CC)/CC(C)(C)C2)C=Cc2ccccc21	42200 nM	486 nM	1030 nM
CCN(CC)CCNc1nc2cc(OC)c(OC)cc2c2nc(-c3ccccc3)nn12	77200 nM	1670 nM	1800 nM
CN(C)c1ccc(N=Cc2ccc(N3CCOCC3)cc2)cc1	> 10000 nM	175 nM	235 nM
CCn1ncc(CN2CCC(C(=O)Nc3ccccc3-c3cccc(OC)c3)CC2)c1C	47600 nM	> 12500 nM	1160 nM
CC1(C)CC(NC(=O)Cc2ccc(Cl)cc2)CC(C)(C)N1	> 100000 nM	> 12500 nM	2300 nM
COc1ccc(/C=C2\SC(=Nc3ccccc3)NC2=O)cc1	> 10000 nM	342 nM	233 nM
